Data on 13 compounds can be found in US9856262B2, “Analogues of 4H-pyrazolo[1,5-a] benzimidazole compound as PARP inhibitors” (HUBEI BIO-PHARMACEUTICAL INDUSTRIAL TECHNOLOGICAL INSTITUTE …, priority 2014, dated 2018).

The target in one assay is T1, PARP-1 (Homo sapiens, UniProt P09874).
T1 construct: purchased
The assay is described as follows: PARP enzymatic assay (HT Universal Colorimetric PARP1 Assay Kit). It is filed as biochemical. The settings on record: read-out: PARP-1 enzymatic inhibition IC50. Summed up: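 Inhibition of PARP1 was measured with the HT Universal Colorimetric PARP1 Assay Kit. A 96-well plate was coated with histone proteins overnight at 4° C, washed with PBST, and blocked for 30 min at room temperature. Test compound and 20 μl of PARP1 (1 nM) were then added and incubated. Streptavidin-HRP (1:50) and chemiluminescent HRP substrate were added, and the signal was read on an Envision microplate reader.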

A further assay concerns HCC1937 cells. The assay is described as follows: Cellular PARylation assay. It is filed as cell-based. The settings on record: Homo sapiens; HCC1937 cells, compound 30 min then 1 mM H2O2 10 min; read-out: cellular PARylation EC50. The method in brief:
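HCC1937 cells pretreated 30 min with compound, then stimulated with 1 mM H2O2 for 10 min. Fixed cells immunostained with anti-PAR 10H and FITC secondary, with DAPI counterstain; fluorescence read on a plate reader.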

T1 sequence (P09874 whole entry): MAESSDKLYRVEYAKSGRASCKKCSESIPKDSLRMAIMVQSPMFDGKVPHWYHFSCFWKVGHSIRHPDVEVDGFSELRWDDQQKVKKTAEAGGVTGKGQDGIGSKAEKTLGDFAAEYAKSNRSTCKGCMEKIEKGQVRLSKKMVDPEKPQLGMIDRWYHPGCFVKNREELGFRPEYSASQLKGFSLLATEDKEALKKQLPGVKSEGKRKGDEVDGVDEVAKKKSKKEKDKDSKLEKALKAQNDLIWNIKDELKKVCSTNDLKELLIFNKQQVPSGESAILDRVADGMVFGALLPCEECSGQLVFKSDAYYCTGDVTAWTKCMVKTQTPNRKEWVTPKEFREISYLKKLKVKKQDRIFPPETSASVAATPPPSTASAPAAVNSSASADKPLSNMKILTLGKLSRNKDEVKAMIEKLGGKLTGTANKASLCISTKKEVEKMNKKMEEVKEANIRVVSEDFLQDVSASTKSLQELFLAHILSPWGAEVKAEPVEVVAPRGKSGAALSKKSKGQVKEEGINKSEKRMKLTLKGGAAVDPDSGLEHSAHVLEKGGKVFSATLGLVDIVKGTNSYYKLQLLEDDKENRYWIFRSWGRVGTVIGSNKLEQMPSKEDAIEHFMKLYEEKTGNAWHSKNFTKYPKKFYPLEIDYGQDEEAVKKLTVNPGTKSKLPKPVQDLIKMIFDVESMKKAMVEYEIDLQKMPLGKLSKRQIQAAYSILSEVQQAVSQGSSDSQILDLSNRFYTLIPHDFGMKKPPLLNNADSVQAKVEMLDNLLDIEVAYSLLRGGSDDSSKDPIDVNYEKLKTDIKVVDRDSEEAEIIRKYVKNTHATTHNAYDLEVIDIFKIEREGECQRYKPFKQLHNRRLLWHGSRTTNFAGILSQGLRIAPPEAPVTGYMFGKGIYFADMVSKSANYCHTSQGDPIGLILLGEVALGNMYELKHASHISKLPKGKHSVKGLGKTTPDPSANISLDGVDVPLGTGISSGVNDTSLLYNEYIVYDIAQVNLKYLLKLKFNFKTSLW

Regarding `CC1(c2cnn3c2[nH]c2cc(F)cc(C(N)=O)c23)CCN(CC2COC2)CC1` [Example 68, 6-fluoro-3-(4-methyl-1-(oxetan-3-ylmethyl)piperidin-4-yl)-4H-benzo[4,5]imidazo[1,2-b]pyrazole-8-carboxamide], the IC50 on PARP-1 was in the range of 1 to 100 nM. Moreover, the concentration giving a half-maximal response (EC50) in the assay with HCC1937 cells lay in the range of 1 to 100 nM.

In the case of `CN1CCCC1c1cnn2c1[nH]c1cc(F)cc(C(N)=O)c12` (centres unmarked) [Example 25, 6-fluoro-3-(1-methylpyrrolidin-2-yl)-4H-benzo[4,5]imidazo[1,2-b]pyrazole-8-carboxamide], the IC50 on PARP-1 is 1 to 100 nM. In addition, the EC50 in the assay on HCC1937 cells is 1 to 100 nM.

On to `CC1(c2cnn3c2[nH]c2cc(F)cc(C(N)=O)c23)CCN(CCC#N)CC1` [Example 88, 3-(1-(2-cyanoethyl)-4-methylpiperidin-4-yl)-6-fluoro-4H-benzo[4,5]imidazo[1,2-b]pyrazole-8-carboxamide], for which the IC50 at PARP-1 is 1 to 100 nM. For the same compound, the half-maximal effective concentration (EC50) in the assay with HCC1937 cells lay within 1 to 100 nM.

On to `Cc1nn2c([nH]c3cc(F)cc(C(N)=O)c32)c1C1(C)CCN(CC2CC2)CC1` [Example 111, 3-(1-(cyclopropylmethyl)-4-methylpiperidin-4-yl)-6-fluoro-2-methyl-4H-benzo[4,5]imidazo[1,2-b]pyrazole-8-carboxamide], for which the IC50 on PARP-1 was 1 to 100 nM. Further, the EC50 with HCC1937 cells was 1 to 100 nM.

On to `COCCN1CCC(c2cnn3c2[nH]c2cc(F)cc(C(N)=O)c23)CC1` [Example 15, 6-fluoro-3-(1-(2-methoxyethyl)piperidin-4-yl)-4H-benzo[4,5]imidazo[1,2-b]pyrazole-8-carboxamide], for which the IC50 on PARP-1 was in the range of 1 to 100 nM. In addition, in the assay on HCC1937 cells, the EC50 was 1 to 100 nM.

Take `NC(=O)c1cc(F)cc2[nH]c3c(C4CCN(C5CC5)CC4)cnn3c12` [Example 4, 3-(1-cyclopropylpiperidin-4-yl)-6-fluoro-4H-benzo[4,5]imidazo[1,2-b]pyrazole-8-carboxamide]: the IC50 on PARP-1 was 1 to 100 nM. The concentration giving a half-maximal response (EC50) in the assay with HCC1937 cells lay in the range of 1 to 100 nM.

For `CC1(c2cnn3c2[nH]c2cc(F)cc(C(N)=O)c23)CCN(CCS(C)(=O)=O)CC1` [Example 65, 6-fluoro-3-(4-methyl-1-(2-(methylsulfonyl)ethyl)piperidin-4-yl)-4H-benzo[4,5]imidazo[1,2-b]pyrazole-8-carboxamide], on PARP-1, the IC50 lay within 1 to 100 nM. Moreover, in the assay on HCC1937 cells, the concentration for a half-maximal effect (EC50) fell in the range of 1 to 100 nM.

As to `CCN1CCC(CC)(c2cnn3c2[nH]c2cc(F)cc(C(N)=O)c23)CC1` [Example 107, 3-(1,4-diethylpiperidin-4-yl)-6-fluoro-4H-benzo[4,5]imidazo[1,2-b]pyrazole-8-carboxamide], the IC50 at PARP-1 is 1 to 100 nM. The EC50 in the assay with HCC1937 cells was 1 to 100 nM.

Regarding `CC1(c2cnn3c2[nH]c2cc(F)cc(C(N)=O)c23)CCN(CC2(C#N)CC2)C1` (centres unmarked) [Example 102, 3-(1-((1-cyanocyclopropyl)methyl)-3-methylpyrrolidin-3-yl)-6-fluoro-4H-benzo[4,5]imidazo[1,2-b]pyrazole-8-carboxamide], the IC50 at PARP-1 is 1 to 100 nM. In the assay with HCC1937 cells, the half-maximal effective concentration (EC50) is 101 to 1000 nM.

Turning to `N#CC1(c2cnn3c2[nH]c2cc(F)cc(C(N)=O)c23)CCN(CC2CC2)CC1` [Example 108, 3-(4-cyano-1-(cyclopropylmethyl)piperidin-4-yl)-6-fluoro-4H-benzo[4,5]imidazo[1,2-b]pyrazole-8-carboxamide], the IC50 at PARP-1 was in the range of 1 to 100 nM. For the same compound, the EC50 in the assay on HCC1937 cells lay in the range of 1 to 100 nM.

Regarding `N#Cc1cnn2c1[nH]c1cc(F)cc(C(N)=O)c12` [Example 37, 3-cyano-6-fluoro-4H-benzo[4,5]imidazo[1,2-b]pyrazole-8-carboxamide], the IC50 on PARP-1 was 1 to 100 nM. In addition, the EC50 with HCC1937 cells is greater than 1000 nM.

With `CC1(c2cnn3c2[nH]c2cc(F)cc(C(N)=O)c23)CCN(C2COC2)C1` (centres unmarked) [Example 94, 6-fluoro-3-(3-methyl-1-(oxetan-3-yl)pyrrolidin-3-yl)-4H-benzo[4,5]imidazo[1,2-b]pyrazole-8-carboxamide], at PARP-1, the IC50 lay in the range of 1 to 100 nM. Further, the EC50 in the assay on HCC1937 cells was in the range of 101 to 1000 nM.

Regarding `NC(=O)c1cc(F)cc2[nH]c3c(C45CC4CN(CC4CC4)C5)cnn3c12` (centres unmarked) [Example 31, 3-(3-(cyclopropylmethyl)-3-azabicyclo[3.1.0]hexan-1-yl)-6-fluoro-4H-benzo[4,5]imidazo[1,2-b]pyrazole-8-carboxamide], the IC50 at PARP-1 lay in the range of 1 to 100 nM. Besides, the half-maximal effective concentration (EC50) in the assay with HCC1937 cells lay within 1 to 100 nM.

The IC50 is the midpoint of a concentration-inhibition curve. A word on the EC50: it is the midpoint of the concentration-response curve.
